As a reminder, the IC50 is the concentration that inhibits the measured activity by half.

Structures are written as SMILES.

Here are results for 31 molecules from patent US20260355196A1, “INHIBITORS AND DEGRADERS OF PIP4K PROTEIN” (Larkspur Biosciences, Inc., priority 2023, published 2026).

The target of the assay is T1, PIP4K2C (Homo sapiens, UniProt Q8TBX8).
T1 sequence (Q8TBX8 1-421): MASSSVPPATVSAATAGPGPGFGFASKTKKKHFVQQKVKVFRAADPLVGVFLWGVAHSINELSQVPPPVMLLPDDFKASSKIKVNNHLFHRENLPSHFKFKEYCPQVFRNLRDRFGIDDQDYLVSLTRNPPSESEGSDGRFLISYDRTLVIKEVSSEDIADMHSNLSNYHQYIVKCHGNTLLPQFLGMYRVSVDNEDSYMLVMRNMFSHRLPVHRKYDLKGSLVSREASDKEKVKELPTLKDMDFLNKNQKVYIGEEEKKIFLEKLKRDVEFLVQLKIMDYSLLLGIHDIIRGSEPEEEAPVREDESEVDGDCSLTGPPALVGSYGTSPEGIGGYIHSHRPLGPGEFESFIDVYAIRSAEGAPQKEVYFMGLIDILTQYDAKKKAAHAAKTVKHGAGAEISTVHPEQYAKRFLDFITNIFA
The experiment in a line: Enzyme Binding Assay (KINOMEscan): active site-directed competition binding to an immobilized ligand. Details: purchased Eurofins DiscoverX, San Diego, CA 87-0007-1094. To be noted: 11-point dose response, duplicate, top concentration 5 micromolar; read-out: Pip4k2c Kd: IC50. Summed up:
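IC50 values come from Hill-equation fits (Levenberg-Marquardt) to 11-point duplicate titrations starting at 5 micromolar. Read-out is competition of compound with an immobilized ligand for the kinase active site.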
On to `CC(=O)N1CCC(Nc2ncc(F)c(-c3cccc(-c4ccc(=O)[nH]c4)c3)n2)CC1` [Compound 202, 5-(3-(2-((1-acetylpiperidin-4-yl)amino)-5-fluoropyrimidin-4-yl)phenyl)pyridin-2(1H)-one], for which the half-inhibitory concentration (IC50) is less than 0.5 µM.

For `O=C1CCC(Nc2ncc(Cl)c(-c3cccc(-c4ccccc4)c3)n2)CN1` (stereo not shown) [Compound 17, 5-((4-([1,1′-biphenyl]-3-yl)-5-chloropyrimidin-2-yl)amino)piperidin-2-one], the IC50 is less than 0.5 µM. For the molecule `CC(=O)N[C@H]1CC[C@H](Nc2ncc(F)c(-c3cccc(N4CCCCC4)c3)n2)CC1` [Compound 616, trans-N-(4-((5-fluoro-4-(3-(piperidin-1-yl)phenyl)pyrimidin-2-yl)amino)cyclohexyl)acetamide], the IC50 is less than 0.5 µM. Then `CC(=O)N1CCC(Nc2ncc(F)c(-c3cccc(C(=O)N4CC[C@@H](O)C4)c3)n2)CC1` [Compound 213, (R)-1-(4-((5-fluoro-4-(3-(3-hydroxypyrrolidine-1-carbonyl)phenyl)pyrimidin-2-yl)amino)piperidin-1-yl)ethan-1-one], with less than 0.5 µM; and `CC(=O)N1CCC(CCC(=O)N2CCC(Nc3ncc(Cl)c(-c4cccc(-c5ccccc5)c4)n3)CC2)CC1` [Compound 8, 1-(4-((4-([1,1′-biphenyl]-3-yl)-5-chloropyrimidin-2-yl)amino)piperidin-1-yl)-3-(1-acetylpiperidin-4-yl)propan-1-one], with less than 0.5 µM; and `CNC(=O)[C@H]1CC[C@@H](Nc2ncc(Cl)c(-c3cccc(-c4ccc(F)cc4)n3)n2)CC1` [Compound 131, cis-(1s,4s)-4-((5-chloro-4-(6-(4-fluorophenyl)pyridin-2-yl)pyrimidin-2-yl)amino)-N-methylcyclohexane-1-carboxamide], with less than 0.5 µM. Take `NC(=O)C1CCC(Nc2ncc(Cl)c(-c3cccc(-c4ccccc4)c3)n2)CC1` (stereo not shown) [Compound 1, 4-((4-([1,1′-biphenyl]-3-yl)-5-chloropyrimidin-2-yl)amino)cyclohexane-1-carboxamide]: the IC50 was in the range of 0.5 to 1 µM. For the molecule `NC(=O)[C@H]1CC[C@H](Nc2ncc(F)c(-c3ccnc(N4CCCOC4=O)c3)n2)CC1` [Compound 622, trans-4-[[5-fluoro-4-[2-(2-oxo-1,3-oxazinan-3-yl)-4-pyridyl]pyrimidin-2-yl]amino]cyclohexanecarboxamide], the IC50 is less than 0.5 µM. With `CC(=O)N1CCC(Nc2ncc(Cl)c(C3CCCN(C(=O)c4ccc(F)cc4)C3)n2)CC1` (stereo not shown) [Compound 125, 1-(4-((5-chloro-4-(1-(4-fluorobenzoyl)piperidin-3-yl)pyrimidin-2-yl)amino)piperidin-1-yl)ethan-1-one], the IC50 fell in the range of 1 to 5 µM. For `CC(=O)N[C@H]1CC[C@H](Nc2ncc(F)c(-c3cccc(N4CCC(O)CC4)c3)n2)CC1` [Compound 250, trans-N-(4-((5-fluoro-4-(3-(4-hydroxypiperidin-1-yl)phenyl)pyrimidin-2-yl)amino)cyclohexyl)acetamide], the concentration for half-maximal inhibition (IC50) was less than 0.5 µM. Under `NC(=O)[C@H]1CC[C@H](Nc2ncc(F)c(-c3cccc(C4COC4)c3)n2)CC1` [Compound 180, trans-4-((5-fluoro-4-(3-(oxetan-3-yl)phenyl)pyrimidin-2-yl)amino)cyclohexane-1-carboxamide] stands less than 0.5 µM; under `CC(=O)N1CCC(Nc2ncc(F)c(N3CCOCC3)n2)CC1` [Compound 205, 1-(4-((5-fluoro-4-morpholinopyrimidin-2-yl)amino)piperidin-1-yl)ethan-1-one], 0.5 to 1 µM; under `CC(=O)N[C@H]1CC[C@H](Nc2ncc(Cl)c(-c3cccc(-c4ccccc4)c3)n2)CC1` [Compound 32, N-(trans-4-((4-([1,1′-biphenyl]-3-yl)-5-chloropyrimidin-2-yl)amino)cyclohexyl)acetamide], less than 0.5 µM.

With `NC(=O)C1CCCC(Nc2ncc(F)c(-c3cccc(-n4ccccc4=O)c3)n2)C1` (stereo not shown) [Compound 40, 3-[[5-fluoro-4-[3-(2-oxo-1-pyridyl)phenyl]pyrimidin-2-yl]amino]cyclohexanecarboxamide], the IC50 was less than 0.5 µM. As to `CN1CCC(CC(=O)N2CCC(Nc3ncc(Cl)c(-c4cccc(-c5ccccc5)c4)n3)CC2)CC1` [Compound 9, 1-(4-((4-([1,1′-biphenyl]-3-yl)-5-chloropyrimidin-2-yl)amino)piperidin-1-yl)-2-(1-methylpiperidin-4-yl)ethan-1-one], the 50% inhibitory concentration (IC50) is less than 0.5 µM. On to `CC(=O)N[C@H]1CC[C@H](Nc2ncc(Cl)c(-c3cc(C4CC4)[nH]n3)n2)CC1` [Compound 190, trans-N-((1r,4r)-4-((5-chloro-4-(5-cyclopropyl-1H-pyrazol-3-yl)pyrimidin-2-yl)amino)cyclohexyl)acetamide], for which the IC50 is less than 0.5 µM.

In the case of `CC(=O)N1CCC(Nc2ncc(Cl)c(-c3cnn(-c4cc[nH]c(=O)c4)c3)n2)CC1` [Compound 120, 4-(4-(2-((1-acetylpiperidin-4-yl)amino)-5-chloropyrimidin-4-yl)-1H-pyrazol-1-yl)pyridin-2(1H)-one], the IC50 is less than 0.5 µM. In the case of `O=C(CC1CCNCC1)N1CCC(Nc2ncc(Cl)c(-c3cccc(-c4ccccc4)c3)n2)CC1` [Compound 5, 1-(4-((4-([1,1′-biphenyl]-3-yl)-5-chloropyrimidin-2-yl)amino)piperidin-1-yl)-2-(piperidin-4-yl)ethan-1-one], the IC50 was less than 0.5 µM. Then `CC(=O)N[C@H]1CC[C@H](Nc2ncc(F)c(-c3cccc(C4CC4)c3)n2)CC1` [Compound 619, trans-N-((1r,4r)-4-((4-(3-cyclopropylphenyl)-5-fluoropyrimidin-2-yl)amino)cyclohexyl)acetamide], with less than 0.5 µM; and `CC(=O)N1CCC(Nc2ncc(F)c(-c3cccc(C(=O)N4CC(O)C4)c3)n2)CC1` [Compound 214, 1-(4-((5-fluoro-4-(3-(3-hydroxyazetidine-1-carbonyl)phenyl)pyrimidin-2-yl)amino)piperidin-1-yl)ethan-1-one], with less than 0.5 µM. With `CC(=O)N1CCC2(CCC(C(=O)N3CCC(Nc4ncc(Cl)c(-c5cccc(-c6ccccc6)c5)n4)CC3)CC2)CC1` [Compound 13, 1-(9-(4-((4-([1,1′-biphenyl]-3-yl)-5-chloropyrimidin-2-yl)amino)piperidine-1-carbonyl)-3-azaspiro[5.5]undecan-3-yl)ethan-1-one], the 50% inhibitory concentration (IC50) was less than 0.5 µM. Then `NC(=O)[C@H]1CC[C@H](Nc2ncc(F)c(-c3cccc(N4CCCCC4=O)n3)n2)CC1` [Compound 274, trans-4-((5-fluoro-4-(6-(2-oxopiperidin-1-yl)pyridin-2-yl)pyrimidin-2-yl)amino)cyclohexane-1-carboxamide], with less than 0.5 µM; and `CC(=O)N1CCC(Nc2ncc(F)c(-n3cc(C4CC4)cn3)n2)CC1` [Compound 219, 1-(4-((4-(4-cyclopropyl-1H-pyrazol-1-yl)-5-fluoropyrimidin-2-yl)amino)piperidin-1-yl)ethan-1-one], with less than 0.5 µM; and `NC(=O)[C@@H]1CCC[C@H](Nc2ncc(F)c(-c3cccc(C4CCC4)c3)n2)C1` (relative stereo) [Compound 38, cis-3-((4-(3-cyclobutylphenyl)-5-fluoropyrimidin-2-yl)amino)cyclohexane-1-carboxamide], with less than 0.5 µM. Under `CC(=O)N1CCC(Nc2ncc(Cl)c(-c3cccc(-c4ccc[nH]c4=O)c3)n2)CC1` [Compound 137, 3-(3-(2-((1-acetylpiperidin-4-yl)amino)-5-chloropyrimidin-4-yl)phenyl)pyridin-2(1H)-one] stands less than 0.5 µM; under `NC(=O)[C@@H]1CCC[C@H](Nc2ncc(F)c(-c3cccc(-n4cc(C(F)(F)F)ccc4=O)c3)n2)C1` [Compound 208, (1R,3S)-3-((5-fluoro-4-(3-(2-oxo-5-(trifluoromethyl)pyridin-1 (2H)-yl)phenyl)pyrimidin-2-yl)amino)cyclohexane-1-carboxamide], less than 0.5 µM.

In the case of `CC(=O)N1CCC(Nc2ncc(F)c(-c3cccc(N4C[C@@H](O)CC4=O)c3)n2)CC1` [Compound 230, (4S)-1-[3-[2-[(1-acetyl-4-piperidyl)amino]-5-fluoro-pyrimidin-4-yl]phenyl]-4-hydroxy-pyrrolidin-2-one], the half-inhibitory concentration (IC50) was less than 0.5 µM. Then `CNC(=O)[C@H]1CC[C@H](Nc2ncc(Cl)c(-c3cnn(-c4ccc(=O)[nH]c4)c3)n2)CC1` [Compound 146, trans-(1r,4r)-4-((5-chloro-4-(1-(6-oxo-1,6-dihydropyridin-3-yl)-1H-pyrazol-4-yl)pyrimidin-2-yl)amino)-N-methylcyclohexane-1-carboxamide], with less than 0.5 µM; and `CC(=O)N1CCC(Nc2ncc(Cl)c(N3CCCCC3)n2)CC1` [Compound 24, 1-(4-((5-chloro-4-(piperidin-1-yl)pyrimidin-2-yl)amino)piperidin-1-yl)ethan-1-one], with 1 to 5 µM.

For the molecule `CNC(=O)[C@H]1CC[C@H](Nc2ncc(Cl)c(-c3cnn(-c4ccc(F)cc4)c3)n2)CC1` [Compound 134, trans-(1r,4r)-4-((5-chloro-4-(1-(4-fluorophenyl)-1H-pyrazol-4-yl)pyrimidin-2-yl)amino)-N-methylcyclohexane-1-carboxamide], the IC50 is less than 0.5 µM. Take `CC(C)(O)c1cc(-c2nc(N[C@H]3CC[C@H](C(N)=O)CC3)ncc2F)ccn1` [Compound 242, trans-4-((5-fluoro-4-(2-(2-hydroxypropan-2-yl)pyridin-4-yl)pyrimidin-2-yl)amino)cyclohexane-1-carboxamide]: the IC50 was less than 0.5 µM.
